Results taken from patent US20240246960A1 (adMare Therapeutics Society, priority 2021, published 2024).
Read-outs that look alike come from different tables or passages of the source.

Columns and labels:
[1] = target: T1, pDNA-PK ser2056 induction in FaDU spheroids (Homo sapiens, UniProt P78527); test: Multicellular tumour spheroid + radiation, pDNA-PK inhibition, FaDU; format: cell-based; conditions: 20 Gy
T1 construct: host or cells: FaDu
Outline: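 HCT116 or FaDU spheroids (~0.5 mm) in MEM/10% FBS/10 mM glucose, 20% O2, 5% CO2, 37 °C, stirred, irradiated with 20 Gy alongside compound serially diluted from 10 μM to 3.5 nM. Cryosections taken 2 h post-radiation, immunostained for pDNA-PK ser2056; EC50 is concentration halving pDNA-PK induction. Survival endpoint: 8 Gy, dissociation at 3 h, colony formation.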

[2] = Microsomal stability assay, mouse liver microsomes; conditions: for microsomal CLint at 0.1 uM: male, CD-1, mouse, liver microsomes, pH 7.4, Microsomal Stability Mouse Clint, 0.1 mg/mL microsomes, 0.1 uM compound
DNA-PK = target: T2, DNA-PK (Homo sapiens, UniProt P78527); test: DNA-PK Assay for Biochemical Enzymatic Inhibition (ADP Glo Kinase assay); conditions: Table 1
T2 construct: purchased Invitrogen PR9107A
Outline: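 Human DNA-PK (25 ng) preincubated 15 min with compounds (ten three-fold dilutions) in HEPES pH 7.5, MgCl2, KCl, calf thymus DNA buffer, then substrate 434.4 μM and ATP 64.4 μM (final) for 60 min at room temperature. ADP-Glo luminescence; percent inhibition fitted by four-parameter regression for IC50.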

HCT116 spheroids = test: Spheroid + radiation colony forming cell survival assay (SF), HCT116; format: cell-based; conditions: 8 Gy
Description: Multicellular tumour spheroids determination of compound inhibition of pDNA-PK induction following radiation. Tumour spheroids were grown to approximately 0.5 mm in diameter and irradiated with 20 Gy in combination with inhibitor test compounds to determine their potency. Inhibitor concentration for 50% reduction in pDNA-PK induction (IC50) was determined via immunohistochemical staining in spheroid cryosections taken 2 hours following radiation. For cell survival endpoint 8 Gy radiation was used and 3 hours following radiation spheroids were dissociated, counted and plated for colony forming endpoint.
Spheroid+radiation colony forming cell survival assay (SF). Radiation 8 Gy. Drug: serial dilution 5 μM down to 10 nM (12 wells×2 repeat). Spheroids: 5-10 spheroids per well ([…]). HCT116. 5% O2 and 5% CO2. 96 well pate format for assay. Protocol: pre incubate 1 hour with drug, irradiate 8 Gy, post incubate 3 hrs with drug, dissociate spheroids and count cells and plate for colony forming assay. Endpoint: wait 4-7 days and count colonies. Analysis: determine EC50 concentration that increase cell kill by 50% over radiation alone.
Multicellular tumour spheroids were used to determine potency of test compounds in a 3D tissue environment using inhibition of pDNA-PK induction following radiation or cell survival as the endpoint. For the pDNA-PK endpoint HCT116 or FaDU tumour spheroids were grown to approximately 0.5 mm in diameter and irradiated with 20 Gy in combination with inhibitor test compounds to determine their potency. Experiments were carried out in 96 well plates containing 0.7 mls of MEM media containing 10% FBS and 10 mM glucose under 20% O2 & 5% CO2 at 37° C. Following dilution of compounds 1:1000 from DMSO stocks, compounds were serially diluted from 10 μM down to 3.5 nM and 5-10 spheroids added. 96 well plates were constantly stirred to avoid spheroids settling during the course of the experiment. The inhibitor concentration for 50% reduction in pDNA-PK induction (EC50) was determined via immunohistochemical staining in spheroid cryosections taken 2 hours following radiation using anti-pDNA-PK (ser 2056) and fixed immediately in formalin following sectioning. For cell survival endpoint 8 Gy radiation was used and, 3 hours following radiation, spheroids were dissociated, counted and plated for colony forming endpoint. Data presented in the table compound potency as EC50 [μM].

[3] = Hepatocyte stability assay, human hepatocytes; format: in vitro ADME; conditions: for hepatocyte CLint at 1 uM: both sexes, human, cryopreserved hepatocytes, pH 7.3, 0.7 million cells per mL, 1 uM compound
Outline: (§1)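 Pooled cryopreserved hepatocytes (male CD-1 mouse, or mixed-gender human donors; ≥10 each) at 0.7 million viable cells/mL in Krebs-Henseleit buffer pH 7.3, with 1 uM compound (≤0.01% DMSO). Incubated up to 2 h at 37 °C/5% CO2, quenched with acetonitrile; parent compound followed by HPLC-MS/MS peak area.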

[4] = Hepatocyte stability assay, mouse hepatocytes; format: in vitro ADME; conditions: for hepatocyte CLint at 1 uM: male, CD-1, mouse, cryopreserved hepatocytes, pH 7.3, 0.7 million cells per mL, 1 uM compound
Outline: as §1

[5] = Example 8, spheroid, read-out: Cell line: FaDU Immunohistochemical endpoint pDNA-PK inhibition EC50
[6] = Example 9 Study 2, 20% O2, read-out: Spheroid Cell line: FaDU Immunohistochemical endpoint pDNA-PK inhibition EC50
[7] = Example 8, spheroid, read-out: Cell line: HCT116 Colony forming endpoint Surviving Fraction EC50
[8] = Example 9 Study 2, read-out: Spheroid Cell line: HCT116 Colony forming endpoint Surviving Fraction EC50

| EC50 [1, 5] [nM] | EC50 [1, 6] [nM] | Microsomal Stability (mouse) % rem. 60 min [2] | microsomal CLint at 0.1 uM [2] [µL/min/mg] | IC50 (DNA-PK) [nM] | Hepatocyte Stability (human) % rem. 120 min [3] | hepatocyte CLint at 1 uM [3] [µL/min/1e6 cells] | Hepatocyte Stability (mouse) % rem. 120 min [4] | hepatocyte CLint at 1 uM [4] [µL/min/1e6 cells] | Structure (SMILES) | EC50 (HCT116 spheroids; [7]) [nM] | EC50 (HCT116 spheroids; [8]) [nM] |
| --- | --- | --- | --- | --- | --- | --- | --- | --- | --- | --- | --- |
| 500 to 1000 | 500 to 1000 | E (% remaining = 0-25%) | > 116 | 0.5 to 1 | F (% remaining = 25-50%) | > 8.2 | F (% remaining = 25-50%) | > 8.2 | c1cnc(N[C@H]2CC[C@@H](Oc3nc(N4CCOCC4)cc4ncccc34)CC2)nc1 [Compound 20a, N-((1s,4s)-4-((7-Morpholino-1,6-naphthyridin-5-yl)oxy)cyclohexyl)pyrimidin-2-amine] | 10 to 500 | 10 to 500 |
| 500 to 1000 | 500 to 1000 | E (% remaining = 0-25%) | > 116 | < 0.5 | – | – | – | – | Cc1cnc(N[C@H]2CC[C@@H](Oc3nc(N4CCOCC4)cc4ncccc34)CC2)nc1 [Compound 32, 5-Methyl-N-((1s,4s)-4-((7-morpholino-1,6-naphthyridin-5-yl)oxy)cyclohexyl)pyrimidin-2-amine] | 10 to 500 | 10 to 500 |
| 1000 to 10000 | 1000 to 10000 | E (% remaining = 0-25%) | > 116 | 0.5 to 1 | – | – | – | – | FC(F)(F)c1cnc(N[C@H]2CC[C@@H](Oc3nc(N4CCOCC4)cc4ncccc34)CC2)nc1 [Compound 34, N-((1s,4s)-4-((7-Morpholino-1,6-naphthyridin-5-yl)oxy)cyclohexyl)-5-(trifluoromethyl)pyrimidin-2-amine] | 1000 to 10000 | 1000 to 10000 |
| 500 to 1000 | 500 to 1000 | G (% remaining = 50-75%) | > 116 | 1 to 10 | – | – | E (% remaining = 0-25%) | > 8.2 | O=C(N[C@H]1CC[C@@H](Oc2nc(N3CCOCC3)cc3ncccc23)CC1)c1cncnc1 [Compound 122, N-((1s,4s)-4-((7-Morpholino-1,6-naphthyridin-5-yl)oxy)cyclohexyl)pyrimidine-5-carboxamide] | 500 to 1000 | 500 to 1000 |
| 10 to 500 | 10 to 500 | G (% remaining = 50-75%) | < 116 | < 0.5 | H (% remaining = 75-100%) | < 8.2 | G (% remaining = 50-75%) | < 8.2 | O=C(N[C@H]1CC[C@@H](Oc2nc(N3CCOCC3)cc3ncccc23)CC1)c1ncccn1 [Compound 123, N-((1s,4s)-4-((7-Morpholino-1,6-naphthyridin-5-yl)oxy)cyclohexyl)pyrimidine-2-carboxamide] | 10 to 500 | 10 to 500 |
| 10 to 500 | 10 to 500 | E (% remaining = 0-25%) | > 116 | < 0.5 | – | – | – | – | O=C(N[C@H]1CC[C@@H](Oc2nc(N3CCOCC3)cc3ncccc23)CC1)c1ccco1 [Compound 132, N-((1s,4s)-4-((7-Morpholino-1,6-naphthyridin-5-yl)oxy)cyclohexyl)furan-2-carboxamide] | 10 to 500 | 10 to 500 |
